The values that follow are results of earlier work, collected in patent US12697292B2, “Method for treating human hair with agents containing mixtures of organic C1-C6 alkoxy siloxanes” (Henkel AG & Co. KGaA, priority 2021, dated 2026).

The conditions of the data set: 25° C.

With `CCN(Cc1cccc(S(=O)(=O)[O-])c1)c1ccc(C(=C2C=CC(=[N+](CC)Cc3cccc(S(=O)(=O)[O-])c3)C=C2)c2ccccc2S(=O)(=O)[O-])cc1.[Na+].[Na+]` [Acid Blue 9], the water solubility entry is given as “more than 20 wt. %”.

For `O=S(=O)([O-])c1ccc(N=Nc2c(O)ccc3ccccc23)cc1.[Na+]` [Acid Orange 7, sodium salt of 4-[(2-hydroxy-1-naphthyl)azo] benzene sulphonate], the water solubility result is “more than 7 g/L”.

For `Nc1cc(S(=O)(=O)[O-])cc2cc(S(=O)(=O)[O-])c(N=Nc3ccccc3)c(O)c12.[Na+].[Na+]` [Acid Red 33, dianhydro salt of 5-amino-4-hydroxy-3-(phenylazo)-naphthalene-2,7-disulfonate], the water solubility is 2500 µg/mL.

As for `O=C([O-])c1c(Cl)c(Cl)c(Cl)c(Cl)c1-c1c2cc(Br)c(=O)c(Br)c-2oc2c(Br)c([O-])c(Br)cc12.[Na+].[Na+]` [Acid Red 92, disodium salt of 3,4,5,6-tetrachloro-2-(1,4,5,8-tetrabromo-6-hydroxy-3-oxanthene-9-yl) benzoic acid], the water solubility entry is recorded as “greater than 10 g/L”.

On to `O=C([O-])C1=NN(c2ccc(S(=O)(=O)[O-])cc2)C(=O)C1N=Nc1ccc(S(=O)(=O)[O-])cc1.[Na+].[Na+].[Na+]` (centres unmarked) [Acid Yellow 23, trisodium salt of 4,5-dihydro-5-oxo-1-(4-sulfophenyl)-4-((4-sulfophenyl)azo)-1H-pyrazole-3−carboxylic acid], for which the “solubility in water” value is listed as “readily soluble”.
